Test results as given in patent US12054486B2, “Pyridine derivatives and their use as sodium channel activators” (Xenon Pharmaceuticals Inc., priority 2021, dated 2024).
Where a name gives a salt, the structure may show the parent alone.

Each compound was assayed against sodium channel isoforms of interest stably expressed in Human Embryonic Kidney Cells (voltage-gated sodium channel, particularly NaV1.1) (Homo sapiens, UniProt P35498) (assay: automated planar patch clamp assay of sodium channel gating (area under the sodium current trace)). Settings: HEK cells, voltage step from −120 mV to 0 mV, increasing concentrations.
Assay type: cell-based
Text: A typical assay described in Crestey, F. et al., ACS Chem Neurosci (2015), Vol. 6, pp. 1302-1308, AA43279 (Frederiksen, K. et al., Eur J Neurosci (2017), Vol. 46, pp. 1887-1896) and Lu AE98134 (von Schoubyea, N. L. et al., Neurosci Lett (2018), Vol. 662, pp. 29-35) employs the use of automated planar patch clamp techniques to study the effects of the chemical agent on the gating of sodium channels. The sodium channel isoforms of interest are stably expressed in Human Embryonic Kidney Cells and the currents that flow through those channels in response to a depolarizing voltage clamp step from −120 mV to 0 mV are measured in the presence of increasing concentrations of the chemical agents. The area under the sodium current trace which correlates to the magnitude of sodium flux through the cell membrane is used to quantify the effects on gating of the channels. Other parameters that are measured in the assay include the peak current, time constant of open state inactivation and the voltage dependence of steady state inactivation properties. The concentration responses are used to determine potency of each chemical agents effects on modulating the sodium channel isoform gating. Such techniques are known to those skilled in the art, and may be developed, using current technologies, into low or medium throughput assays for evaluating compounds for their ability to modulate sodium channel behaviour.
As disclosed above, typical assays for testing compounds of the disclosure are known, for example as disclosed in Crestey, F. et al., ACS Chem Neurosci (2015), Vol. 6, pp. 1302-1308, AA43279 (Frederiksen, K. et al., Eur J Neurosci (2017), Vol. 46, pp. 1887-1896) and Lu AE98134 (von Schoubyea, N. L. et al., Neurosci Lett (2018), Vol. 662, pp. 29-35) which employs the use of automated planar patch clamp techniques to study the effects of the chemical agent on the gating of sodium channels. The sodium channel isoforms of interest are stably expressed in Human Embryonic Kidney Cells and the currents that flow through those channels in response to a depolarizing voltage clamp step from −120 mV to 0 mV are measured in the presence of increasing concentrations of the chemical agents. The area under the sodium current trace which correlates to the magnitude of sodium flux through the cell membrane is used to quantify the effects on gating of the channels. Other parameters that are measured in the assay include the peak current, time constant of open state inactivation and the voltage dependence of steady state inactivation properties. The concentration responses are used to determine potency of each chemical agents effects on modulating the sodium channel isoform gating.

Question: Which results are given for F[C@H]1CCN(c2nccc(-c3ccccc3)c2-c2nc3c([nH]2)CCCC3)C1 [Example 29, (S)-2-(2-(3-fluoropyrrolidin-1-yl)-4-phenylpyridin-3-yl)-4,5,6,7-tetrahydro-1H-benzo[d]imidazole]?
Answer: EC50: < 1000 nM; Empirical Emax: ++ (++ indicates a value from 2.0 up to 5.0 μM)

Question: Which EC50 does the source give for Fc1cc(F)cc(-c2ccnc(N3CCCC3)c2-c2nc3ccccc3[nH]2)c1 [Example 23, 2-(4-(3,5-difluorophenyl)-2-(pyrrolidin-1-yl)pyridin-3-yl)-1H-benzo[d]imidazole] here?
Answer: 1000 to 10000 nM

Question: And the “Empirical Emax” value?
Answer: ++ (++ indicates a value from 2.0 up to 5.0 μM)

Question: Which results are given for CC(C)(C)OC(=O)N1CCc2nc(-c3c(-c4ccccc4)ccnc3N3CCC(F)(F)C3)[nH]c2C1 [Example 55, Tert-Butyl 2-[2-(3,3-difluoropyrrolidin-1-yl)-4-phenyl-3-pyridyl]-3,4,6,7-tetrahydroimidazo[4,5-c]pyridine-5-carboxylate]?
Answer: EC50: < 1000 nM; Empirical Emax: +++ (+++ indicates a value from 5.0 up to 7.5 μM)

Question: With CC(C)N1CCc2nc(-c3c(-c4ccccc4)ccnc3N3CC[C@H](F)C3)[nH]c2C1 [Example 38, (S)-2-(2-(3-fluoropyrrolidin-1-yl)-4-phenylpyridin-3-yl)-5-isopropyl-4,5,6,7-tetrahydro-3H-imidazo[4,5-c]pyridine] as the compound, how does the EC50 read?
Answer: ≥ 50000 nM

Question: What about the “Empirical Emax” value of the same compound?
Answer: + (+ indicates a value less than 2.0 μM)

Question: F[C@@H]1CN(c2nccc(-c3ccccc3)c2-c2nc3c([nH]2)COCC3)C[C@@H]1F [Example 48, 2-(2-((3S,4R)-3,4-difluoropyrrolidin-1-yl)-4-phenylpyridin-3-yl)-3,4,6,7-tetrahydropyrano[3,4-d]imidazole] was tested. Which EC50 did it give?
Answer: 1000 to 10000 nM

Question: And the “Empirical Emax” value?
Answer: +++ (+++ indicates a value from 5.0 up to 7.5 μM)

Question: With Fc1cccc(-c2ccnc(N3CCC(F)(F)C3)c2-c2nc3c([nH]2)CCOC3)c1 [Example 75, 2-[2-(3,3-difluoropyrrolidin-1-yl)-4-(3-fluorophenyl)-3-pyridyl]-1,4,6,7-tetrahydropyrano[3,4-d]imidazole] as the compound, how does the EC50 read?
Answer: < 1000 nM

Question: What about the “Empirical Emax” value of the same compound?
Answer: ++++ (++++ indicates a value greater than 7.5)

Question: CCOC(=O)N1CCc2nc(-c3c(-c4ccccc4)ccnc3N3CC[C@H](F)C3)n(C(=O)OCC)c2C1 [Example 40, diethyl (S)-2-(2-(3-fluoropyrrolidin-1-yl)-4-phenylpyridin-3-yl)-6,7-dihydro-3H-imidazo[4,5-c]pyridine-3,5(4H)-dicarboxylate] was tested. Which EC50 did it give?
Answer: 1000 to 10000 nM

Question: And the “Empirical Emax” value?
Answer: +++ (+++ indicates a value from 5.0 up to 7.5 μM)

Question: How did the EC50 turn out when F[C@H]1CCN(c2nccc(-c3ccccc3)c2-c2nc3ccccc3[nH]2)C1 [Example 17, (S)-2-(2-(3-fluoropyrrolidin-1-yl)-4-phenylpyridin-3-yl)-1H-benzo[d]imidazole] was run?
Answer: 1000 to 10000 nM

Question: And the “Empirical Emax” value?
Answer: ++++ (++++ indicates a value greater than 7.5)

Question: How did the EC50 turn out when COC1CCc2nc(-c3c(-c4ccccc4)ccnc3N3CCC(F)(F)C3)[nH]c2C1 (centres unmarked) [Example 59, 2-(2-(3,3-difluoropyrrolidin-1-yl)-4-phenylpyridin-3-yl)-6-methoxy-4,5,6,7-tetrahydro-1H-benzo[d]imidazole] was run?
Answer: < 1000 nM

Question: What about the “Empirical Emax” value of the same compound?
Answer: ++ (++ indicates a value from 2.0 up to 5.0 μM)

Question: With Fc1ccc(F)c(-c2ccnc(N3CC[C@H](F)C3)c2-c2nc3c([nH]2)COCC3)c1 [Example 56, (S)-2-(4-(2,5-difluorophenyl)-2-(3-fluoropyrrolidin-1-yl)pyridin-3-yl)-3,4,6,7-tetrahydropyrano[3,4-d]imidazole] as the compound, how does the EC50 read?
Answer: 1000 to 10000 nM

Question: What about the “Empirical Emax” value of the same compound?
Answer: ++++ (++++ indicates a value greater than 7.5)

Question: With N#CC1CCN(c2nccc(-c3ccccc3)c2-c2nc3c([nH]2)COCC3)C1 (centres unmarked) [Example 46] as the compound, how does the EC50 read?
Answer: 1000 to 10000 nM

Question: And the “Empirical Emax” value?
Answer: +++ (+++ indicates a value from 5.0 up to 7.5 μM)

Question: What does the source list for Fc1ccccc1-c1ccnc(N2CCC(F)(F)C2)c1-c1nc2c([nH]1)COCC2 [Example 72, 2-[2-(3,3-difluoropyrrolidin-1-yl)-4-(2-fluorophenyl)-3-pyridyl]-1,4,6,7-tetrahydropyrano[3,4-d]imidazole]?
Answer: EC50: < 1000 nM; Empirical Emax: ++++ (++++ indicates a value greater than 7.5)

Question: Which results are given for CC(C)(C)c1ccc2nc(-c3c(-c4ccccc4)ncnc3N3CCCC3)[nH]c2c1 [Example 31, 6-(tert-butyl)-2-(4-phenyl-6-(pyrrolidin-1-yl)pyrimidin-5-yl)-1H-benzo[d]imidazole]?
Answer: EC50: 1000 to 10000 nM; Empirical Emax: +++ (+++ indicates a value from 5.0 up to 7.5 μM)

Question: Which EC50 does the source give for CC1CN=C(c2c(-c3ccccc3)ccnc2N2CC[C@H](F)C2)N1 (stereo partly drawn) [Example 26, 2-((S)-3-fluoropyrrolidin-1-yl)-3-(5-methyl-4,5-dihydro-1H-imidazol-2-yl)-4-phenylpyridine] here?
Answer: 1000 to 10000 nM

Question: And the “Empirical Emax” value?
Answer: + (+ indicates a value less than 2.0 μM)

Question: What does the source list for c1ccc(-c2ccnc(N3CCCC3)c2-c2nc3ccccc3[nH]2)cc1 [Example 16, 2-(4-phenyl-2-(pyrrolidin-1-yl)pyridin-3-yl)-1H-benzo[d]imidazole]?
Answer: EC50: 1000 to 10000 nM; Empirical Emax: +++ (+++ indicates a value from 5.0 up to 7.5 μM)

Question: Which EC50 does the source give for F[C@H]1CCN(c2nccc(-c3ccccc3)c2-c2cc(-c3cccnc3)[nH]n2)C1 [Example 19, (S)-2-(3-fluoropyrrolidin-1-yl)-4-phenyl-3-(5-(pyridin-3-yl)-1H-pyrazol-3-yl)pyridine] here?
Answer: 10000 to 50000 nM

Question: What about the “Empirical Emax” value of the same compound?
Answer: ++ (++ indicates a value from 2.0 up to 5.0 μM)

Question: How did the EC50 turn out when c1ccc(-c2ccnc(N3CC4(COC4)C3)c2-c2nc3c([nH]2)COCC3)cc1 [Example 66, 2-(4-phenyl-2-(2-oxa-6-azaspiro[3.3]heptan-6-yl)pyridin-3-yl)-3,4,6,7-tetrahydropyrano[3,4-d]imidazole] was run?
Answer: 1000 to 10000 nM

Question: What about the “Empirical Emax” value of the same compound?
Answer: +++ (+++ indicates a value from 5.0 up to 7.5 μM)

Question: What does the source list for F[C@H]1CCN(c2nccc(-c3ccccc3)c2-c2nc3ccccc3o2)C1 [Example 68, (S)-2-(2-(3-fluoropyrrolidin-1-yl)-4-phenylpyridin-3-yl)benzo[d]oxazole]?
Answer: EC50: ≥ 50000 nM; Empirical Emax: + (+ indicates a value less than 2.0 μM)

Question: With CC(C)C(=O)N1CCc2nc(-c3c(-c4ccccc4)ccnc3N3CC[C@H](F)C3)[nH]c2C1 [Example 41, (S)-1-(2-(2-(3-fluoropyrrolidin-1-yl)-4-phenylpyridin-3-yl)-3,4,6,7-tetrahydro-5H-imidazo[4,5-c]pyridin-5-yl)-2-methylpropan-1-one] as the compound, how does the EC50 read?
Answer: ≥ 50000 nM

Question: What about the “Empirical Emax” value of the same compound?
Answer: + (+ indicates a value less than 2.0 μM)

Question: Which EC50 does the source give for Cc1cc2nc(-c3c(-c4ccccc4F)ccnc3N3CCC(F)(F)C3)[nH]c2cn1 [Example 79, 2-[2-(3,3-difluoropyrrolidin-1-yl)-4-(2-fluorophenyl)-3-pyridyl]-6-methyl-3H-imidazo[4,5-c]pyridine] here?
Answer: < 1000 nM

Question: And the “Empirical Emax” value?
Answer: ++++ (++++ indicates a value greater than 7.5)

Question: How did the EC50 turn out when FC1(F)CCN(c2nccc(-c3ccccc3)c2-c2nc3c([nH]2)COC2(CCC2)C3)C1 [Example 53, 2′-(2-(3,3-difluoropyrrolidin-1-yl)-4-phenylpyridin-3-yl)-4′,7′-dihydro-3′H-spiro[cyclobutane-1,6′-pyrano[3,4-d]imidazole]] was run?
Answer: 1000 to 10000 nM

Question: And the “Empirical Emax” value?
Answer: ++ (++ indicates a value from 2.0 up to 5.0 μM)

Question: Which results are given for Nc1nnc(-c2c(-c3ccccc3F)ccnc2N2CCCC2)o1 [Example 4, 5-(4-(2-fluorophenyl)-2-(pyrrolidin-1-yl)pyridin-3-yl)-1,3,4-oxadiazol-2-amine]?
Answer: EC50: ≥ 50000 nM; Empirical Emax: +++ (+++ indicates a value from 5.0 up to 7.5 μM)

Question: With F[C@H]1CCN(c2nccc(-c3ccccc3)c2-c2nnn[nH]2)C1 [Example 32, (S)-2-(3-fluoropyrrolidin-1-yl)-4-phenyl-3-(1H-tetrazol-5-yl)pyridine] as the compound, how does the EC50 read?
Answer: < 1000 nM

Question: And the “Empirical Emax” value?
Answer: + (+ indicates a value less than 2.0 μM)

Question: Which results are given for Fc1ccccc1-c1ccnc(N2CCCC2)c1-c1nc2ccncc2[nH]1 [Example 11, 2-(4-(2-fluorophenyl)-2-(pyrrolidin-1-yl)pyridin-3-yl)-3H-imidazo[4,5-c]pyridine Formic Acid Salt]?
Answer: EC50: 1000 to 10000 nM; Empirical Emax: ++++ (++++ indicates a value greater than 7.5)

Question: Which results are given for c1ccc(-c2ccnc(N3CCOCC3)c2C2=N[C@@H]3CCCC[C@H]3N2)cc1 [Example 25, 4-(3-((3aR,7aR)-3a,4,5,6,7,7a-hexahydro-1H-benzo[d]imidazol-2-yl)-4-phenylpyridin-2-yl)morpholine]?
Answer: EC50: 1000 to 10000 nM; Empirical Emax: + (+ indicates a value less than 2.0 μM)
